{"source": "paper PMC9964023", "about": "(Marine Drugs, 2023)", "experiment_in_all_cases": "biochemical", "key": {"[1]": {"molecular_target": "T1, norepinephrine transporter (NET) (Rattus norvegicus, UniProt Q63380)", "T1 construct": "brains were processed to yield synaptosomes as previously described; from tissue; host or cells: rat whole brain minus caudate and cerebellum, synaptosomes", "T1 sequence (Q63380 1-617)": "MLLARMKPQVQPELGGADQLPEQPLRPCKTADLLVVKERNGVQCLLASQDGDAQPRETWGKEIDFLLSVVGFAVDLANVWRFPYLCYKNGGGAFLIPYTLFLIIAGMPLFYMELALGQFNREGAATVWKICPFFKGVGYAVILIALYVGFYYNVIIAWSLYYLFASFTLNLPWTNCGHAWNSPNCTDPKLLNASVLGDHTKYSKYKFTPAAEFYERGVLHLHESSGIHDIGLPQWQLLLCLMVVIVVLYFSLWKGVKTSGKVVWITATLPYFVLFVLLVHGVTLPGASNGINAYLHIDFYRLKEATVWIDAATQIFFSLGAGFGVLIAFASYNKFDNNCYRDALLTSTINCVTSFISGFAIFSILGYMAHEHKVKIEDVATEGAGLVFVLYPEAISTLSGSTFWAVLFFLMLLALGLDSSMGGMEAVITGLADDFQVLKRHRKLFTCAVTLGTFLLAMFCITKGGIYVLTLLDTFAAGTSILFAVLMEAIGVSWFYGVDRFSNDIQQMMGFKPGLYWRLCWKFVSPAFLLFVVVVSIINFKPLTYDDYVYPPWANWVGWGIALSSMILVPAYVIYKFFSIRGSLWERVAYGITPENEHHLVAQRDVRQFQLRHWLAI", "type": "biochemical"}, "[2]": {"molecular_target": "T2, serotonin transporter (SERT) (Rattus norvegicus, UniProt P31652)", "T2 construct": "brains were processed to yield synaptosomes as previously described; from tissue; host or cells: rat whole brain minus caudate and cerebellum, synaptosomes", "T2 sequence (P31652 whole entry)": "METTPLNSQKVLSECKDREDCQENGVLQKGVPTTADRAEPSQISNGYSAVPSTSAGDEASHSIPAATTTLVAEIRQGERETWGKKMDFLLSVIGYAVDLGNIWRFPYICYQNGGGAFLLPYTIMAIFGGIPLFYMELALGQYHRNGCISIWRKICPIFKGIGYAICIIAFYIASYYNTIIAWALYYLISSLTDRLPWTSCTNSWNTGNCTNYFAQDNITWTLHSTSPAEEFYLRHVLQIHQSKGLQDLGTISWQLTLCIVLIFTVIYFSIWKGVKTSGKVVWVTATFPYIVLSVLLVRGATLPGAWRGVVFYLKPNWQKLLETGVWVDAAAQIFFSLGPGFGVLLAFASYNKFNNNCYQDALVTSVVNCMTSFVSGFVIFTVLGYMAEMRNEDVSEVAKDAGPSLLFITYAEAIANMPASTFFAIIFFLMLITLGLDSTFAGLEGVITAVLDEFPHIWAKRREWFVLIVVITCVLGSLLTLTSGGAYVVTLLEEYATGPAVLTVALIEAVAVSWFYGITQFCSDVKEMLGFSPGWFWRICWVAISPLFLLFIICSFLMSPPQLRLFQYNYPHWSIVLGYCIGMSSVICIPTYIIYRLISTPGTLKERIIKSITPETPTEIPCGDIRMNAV"}, "[3]": {"molecular_target": "T3, dopamine transporter (DAT) (Rattus norvegicus, UniProt P23977)", "T3 construct": "brains were processed to yield synaptosomes as previously described; from tissue; host or cells: rat caudate synaptosomes", "T3 sequence (P23977 whole entry)": "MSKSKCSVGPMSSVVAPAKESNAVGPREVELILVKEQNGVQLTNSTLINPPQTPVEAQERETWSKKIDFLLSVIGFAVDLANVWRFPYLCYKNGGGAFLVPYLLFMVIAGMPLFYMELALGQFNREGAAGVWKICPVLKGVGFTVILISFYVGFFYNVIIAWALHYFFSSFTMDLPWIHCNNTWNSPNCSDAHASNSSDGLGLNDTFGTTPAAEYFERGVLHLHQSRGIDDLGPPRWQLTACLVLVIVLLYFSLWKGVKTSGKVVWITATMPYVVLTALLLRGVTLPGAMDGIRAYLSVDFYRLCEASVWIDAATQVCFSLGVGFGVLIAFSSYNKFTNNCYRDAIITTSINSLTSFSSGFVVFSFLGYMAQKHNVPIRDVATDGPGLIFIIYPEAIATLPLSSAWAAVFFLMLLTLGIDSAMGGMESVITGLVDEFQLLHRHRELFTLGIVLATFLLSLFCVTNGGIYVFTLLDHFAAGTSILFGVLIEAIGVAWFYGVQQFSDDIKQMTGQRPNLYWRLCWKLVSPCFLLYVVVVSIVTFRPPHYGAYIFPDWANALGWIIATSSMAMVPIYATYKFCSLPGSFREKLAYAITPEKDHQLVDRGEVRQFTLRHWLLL"}}, "note": "Bridge positions count the residues as written; N and C are the ends. Peptide text beside a SMILES is read from it."}
{"smiles": "CSCC[C@H](NC(=O)[C@H](CCCNC(=N)N)NC(=O)[C@H](Cc1ccc(O)cc1)NC(=O)CNC(=O)[C@@H]1CSSC[C@H](NC(=O)[C@@H](NC(=O)[C@@H](N)CO)[C@@H](C)O)C(=O)N1)C(=O)N[C@H]1CSSC[C@@H](C(N)=O)NC(=O)[C@@H]2CCCN2C(=O)[C@H](C(C)C)NC1=O", "note": "[PnID C] (H-STCCGYRMCVPC-NH2; disulfide 3-4, 9-12; N-terminus assumed)", "values": [{"measurement": "IC50", "setting": "[1]", "result": "> 100", "unit": "µM"}, {"measurement": "activity at NET relative to ribbon isomer (in words)", "setting": "[1]", "result": "much less active in inhibiting the rat NET"}, {"measurement": "biological activity (in words)", "setting": "[1]", "result": "did not display any measurable biological activity"}, {"measurement": "IC50", "setting": "[2]", "result": "> 100", "unit": "µM"}, {"measurement": "IC50", "setting": "[3]", "result": "> 100", "unit": "µM"}]}
